The source made the active and inactive calls. The rule behind the calls is not given here.
What was measured:
T47D [1] = assay: Inhibition of human progesterone receptor A protein expression transfected in human T47D cells at 200 nM by Western blot; type: functional
T47D [2] = assay: Inhibition of human progesterone receptor B protein expression transfected in human T47D cells at 200 nM by Western blot; type: functional
T47D [3] = assay: Inhibition of human progesterone receptor A protein expression transfected in human T47D cells at 200 nM in presence of 10 nM of estradiol by Western blot; type: functional, cell-based
T47D [4] = assay: Inhibition of human progesterone receptor B protein expression transfected in human T47D cells at 200 nM in presence of 10 nM of estradiol by Western blot; type: functional, cell-based
T47D [5] = assay: Inhibition of human progesterone receptor A gene expression transfected in human T47D cells at 200 nM by RT-PCR; type: functional, cell-based
T47D [6] = assay: Inhibition of human progesterone receptor B gene expression transfected in human T47D cells at 200 nM by RT-PCR; type: functional, cell-based
T47D [7] = assay: Inhibition of human progesterone receptor A protein expression transfected in human T47D cells at 25 nM by Western blot; type: functional, cell-based
T47D [8] = assay: Inhibition of human progesterone receptor B protein expression transfected in human T47D cells at 25 nM by Western blot; type: functional, cell-based
T47D [9] = assay: Induction of morphology changes in human T47D cells expressing human progesterone receptor assessed as increase in cell height by confocal microscopy; type: functional, cell-based
T47D [10] = assay: Reduction in cell proliferation of human T47D cells expressing human progesterone receptor by FACS method; type: functional, cell-based
T47D [11] = assay: Increase in Ezrin mRNA expression in human T47D cells expressing human progesterone receptor by RT-PCR relative to untreated control; type: functional

Structure (SMILES)	inhibition at 0.2 µM (T47D [1])	inhibition at 0.2 µM (T47D [2])	inhibition (T47D [3])	inhibition (T47D [4])	inhibition (T47D [5])	inhibition (T47D [6])	inhibition (T47D [7])	inhibition (T47D [8])	Activity (T47D [9])	Activity (T47D [10])	fold change (FC) (T47D [11])
Cc1cn(CC(=O)N(CCNC(=O)CN(CCNC(=O)CN(CCNC(=O)CNC(=O)[C@@H](N)CCCCN)C(=O)Cn2cc(C)c(=O)[nH]c2=O)C(=O)Cn2cnc3c(=O)[nH]c(N)nc32)CC(=O)NCCN(CC(=O)NCCN(CC(=O)NCCN(CC(=O)NCCN(CC(=O)NCCN(CC(=O)NCCN(CC(=O)NCCN(CC(=O)NCCN(CC(=O)NCCN(CC(=O)NCCN(CC(=O)NCCN(CC(=O)NCCN(CC(=O)NCCN(CC(=O)NCCN(CC(=O)NCCN(CC(=O)NCCN(CC(=O)N[C@@H](CCCCN)C(=O)O)C(=O)Cn2ccc(N)nc2=O)C(=O)Cn2cnc3c(=O)[nH]c(N)nc32)C(=O)Cn2cnc3c(N)ncnc32)C(=O)Cn2ccc(N)nc2=O)C(=O)Cn2cnc3c(N)ncnc32)C(=O)Cn2ccc(N)nc2=O)C(=O)Cn2ccc(N)nc2=O)C(=O)Cn2cc(C)c(=O)[nH]c2=O)C(=O)Cn2cnc3c(=O)[nH]c(N)nc32)C(=O)Cn2cnc3c(N)ncnc32)C(=O)Cn2ccc(N)nc2=O)C(=O)Cn2ccc(N)nc2=O)C(=O)Cn2cnc3c(=O)[nH]c(N)nc32)C(=O)Cn2cnc3c(=O)[nH]c(N)nc32)C(=O)Cn2cc(C)c(=O)[nH]c2=O)C(=O)Cn2ccc(N)nc2=O)c(=O)[nH]c1=O	75%	75%	Active	Active	inactive	inactive	Active	Active	Active	Active	5
Cc1cn([C@@H]2O[C@H](COP(=O)(O)O[C@H]3[C@@H](O)[C@H](n4cnc5c(=O)[nH]c(N)nc54)O[C@@H]3COP(=O)(O)O[C@H]3[C@@H](O)[C@H](n4ccc(=O)[nH]c4=O)O[C@@H]3COP(=O)(O)O[C@H]3[C@@H](O)[C@H](n4cnc5c(N)ncnc54)O[C@@H]3COP(=O)(O)O[C@H]3C[C@H](n4ccc(N)nc4=O)O[C@@H]3COP(=O)(O)O[C@H]3[C@@H](O)[C@H](n4ccc(=O)[nH]c4=O)O[C@@H]3COP(=O)(O)O[C@H]3C[C@H](n4cnc5c(=O)[nH]c(N)nc54)O[C@@H]3COP(=O)(O)O[C@H]3[C@@H](O)[C@H](N4CC=C(N)NC4=O)O[C@@H]3COP(=O)(O)O[C@H]3[C@@H](O)[C@H](n4ccc(=O)[nH]c4=O)O[C@@H]3COP(=O)(O)O[C@H]3[C@@H](O)[C@H](n4cnc5c(=O)[nH]c(N)nc54)O[C@@H]3COP(=O)(O)O[C@H]3[C@@H](O)[C@H](n4cnc5c(N)ncnc54)O[C@@H]3COP(=O)(O)O[C@H]3[C@@H](O)[C@H](n4ccc(N)nc4=O)O[C@@H]3COP(=O)(O)O[C@H]3[C@@H](O)[C@H](n4ccc(N)nc4=O)O[C@@H]3COP(=O)(O)O[C@H]3[C@@H](O)[C@H](n4ccc(=O)[nH]c4=O)O[C@@H]3COP(=O)(O)O[C@H]3C[C@H](n4cnc5c(=O)[nH]c(N)nc54)O[C@@H]3COP(=O)(O)O[C@H]3[C@@H](O)[C@H](n4cnc5c(N)ncnc54)O[C@@H]3COP(=O)(O)O[C@H]3[C@@H](O)[C@H](n4cnc5c(=O)[nH]c(N)nc54)O[C@@H]3COP(=O)(O)O[C@H]3[C@@H](O)[C@H](n4cnc5c(=O)[nH]c(N)nc54)O[C@@H]3COP(=O)(O)O[C@H]3[C@@H](O)[C@H](n4cnc5c(=O)[nH]c(N)nc54)O[C@@H]3COP(=O)(O)O[C@H]3[C@@H](O)[C@H](n4cnc5c(=O)[nH]c(N)nc54)O[C@@H]3CO)[C@@H](OP(=O)(O)OC[C@H]3O[C@@H](n4cc(C)c(=O)[nH]c4=O)C[C@@H]3O)[C@H]2O)c(=O)[nH]c1=O	–	–	–	–	–	–	Active	Active	–	–	–
